This test addresses full-length Plk1 (Homo sapiens, UniProt P53350). Nature of the test: Fluorescence polarization. As to conditions: FP assay, serially diluted full-length protein. For orientation: Fluorescence polarisation rises when a labelled molecule tumbles more slowly, as on binding a larger partner.

full-length Plk1, sequence (P53350 whole entry): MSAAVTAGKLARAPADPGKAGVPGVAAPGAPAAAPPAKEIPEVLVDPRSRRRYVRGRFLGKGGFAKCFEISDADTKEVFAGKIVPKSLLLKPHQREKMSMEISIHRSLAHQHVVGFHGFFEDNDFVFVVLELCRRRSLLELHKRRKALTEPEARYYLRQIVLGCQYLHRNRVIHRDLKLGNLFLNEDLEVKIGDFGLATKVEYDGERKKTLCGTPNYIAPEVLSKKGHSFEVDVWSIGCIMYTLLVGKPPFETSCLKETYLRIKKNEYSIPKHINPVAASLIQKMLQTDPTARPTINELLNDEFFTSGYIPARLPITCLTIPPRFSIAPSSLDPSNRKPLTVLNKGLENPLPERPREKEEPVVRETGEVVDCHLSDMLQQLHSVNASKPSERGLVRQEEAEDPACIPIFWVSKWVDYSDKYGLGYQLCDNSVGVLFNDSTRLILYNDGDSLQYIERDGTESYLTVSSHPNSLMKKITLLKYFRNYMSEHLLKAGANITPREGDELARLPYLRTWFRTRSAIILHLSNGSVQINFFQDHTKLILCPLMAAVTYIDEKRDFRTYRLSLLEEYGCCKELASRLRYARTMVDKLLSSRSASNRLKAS

Consider “5-carboxyfluorescein (5CF)-GPMQSpTPLNG-NH2 [5CF-GPMQSpTPLNG-NH2]”, for which the “FP signal response to full-length Plk1” value is reported as “did not show significant FP signal enhancement”.

Values taken from article PMC12349913 (Biological & pharmaceutical bulletin, 2024).
